Several values for one entry are separate records, joined by “and”; a condition that tells them apart may be missing. Equal entries are not always repeated.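 Each compound was tested at five concentrations against cells in 96-well plates for 48 hours. GI50 is the concentration that inhibits growth by half. The concentration for full growth arrest is given as TGI.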
Tests used:
Experiment in all cases: NCI anticancer screen, dose series, 48 h
DU-145 prostate = system: DU-145 prostate
EKVX NSCLC = system: EKVX NSCLC
K-562 leukemia = system: K-562 leukemia
KM12 colon = system: KM12 colon
MALME-3M melanoma = system: MALME-3M melanoma
MCF7 breast = system: MCF7 breast
SF-295 CNS = system: SF-295 CNS
T-47D breast = system: T-47D breast
DLD-1 colon = system: DLD-1 colon

CCOC(=O)c1sc(-c2ccc(OS(=O)(=O)c3ccc(Br)s3)c(C=O)c2)nc1C
GI50 (DU-145 prostate): 6.81 µM
TGI (DU-145 prostate): 24.8 µM
GI50 (EKVX NSCLC): 14.3 µM
TGI (EKVX NSCLC): 54.1 µM
GI50 (K-562 leukemia): 3.17 µM
TGI (K-562 leukemia): > 100 µM
GI50 (KM12 colon): 3.36 µM
TGI (KM12 colon): 11.6 µM
GI50 (MALME-3M melanoma): 4.08 µM
TGI (MALME-3M melanoma): 18.1 µM
GI50 (MCF7 breast): 2.86 µM
TGI (MCF7 breast): 8.97 µM
GI50 (SF-295 CNS): 5.08 µM
TGI (SF-295 CNS): 18.4 µM
GI50 (T-47D breast): 2.77 µM
TGI (T-47D breast): 12.1 µM

S=C(Nc1ccc(Br)cc1)Nc1ccc(Br)cc1
GI50 (DU-145 prostate): 6.41 µM
TGI (DU-145 prostate): > 100 µM
GI50 (EKVX NSCLC): 3.72 µM
TGI (EKVX NSCLC): > 100 µM
GI50 (K-562 leukemia): 3.62 µM
TGI (K-562 leukemia): > 100 µM
GI50 (KM12 colon): 3.63 µM
TGI (KM12 colon): > 100 µM
GI50 (MALME-3M melanoma): 11.7 µM
TGI (MALME-3M melanoma): > 100 µM
GI50 (MCF7 breast): 3.87 µM
TGI (MCF7 breast): > 100 µM
GI50 (SF-295 CNS): 2.99 µM
TGI (SF-295 CNS): > 100 µM
GI50 (T-47D breast): 2.99 µM
TGI (T-47D breast): > 100 µM

CC(=O)OCC1OC(n2c(-c3ccc(Cl)cc3)ccc(C#N)c2=S)C(OC(C)=O)C(OC(C)=O)C1OC(C)=O (centres undefined)
TGI (DU-145 prostate): > 100 µM
TGI (EKVX NSCLC): > 82.9 µM and 80.1 µM
TGI (K-562 leukemia): > 100 µM
TGI (KM12 colon): > 100 µM
TGI (MALME-3M melanoma): > 100 µM
TGI (MCF7 breast): > 100 µM
GI50 (SF-295 CNS): 13.8 µM and > 100 µM
TGI (SF-295 CNS): 35 µM and > 100 µM
TGI (T-47D breast): > 100 µM

CN(C)CCCOc1ccc(-c2ccc3ncc4c(c3c2)n(C2CCOCC2)c(=O)n4C)cn1
GI50 (DU-145 prostate): 2.37 µM
TGI (DU-145 prostate): 17.2 µM
GI50 (EKVX NSCLC): 0.975 µM
TGI (EKVX NSCLC): 12.2 µM
GI50 (K-562 leukemia): 9.07 µM
TGI (K-562 leukemia): 43.4 µM
GI50 (KM12 colon): 3.16 µM
TGI (KM12 colon): 16.4 µM
GI50 (MALME-3M melanoma): 0.354 µM
TGI (MALME-3M melanoma): 3.41 µM
GI50 (MCF7 breast): 0.545 µM
TGI (MCF7 breast): 14.5 µM
GI50 (SF-295 CNS): 1.29 µM
TGI (SF-295 CNS): 7.81 µM
GI50 (T-47D breast): 0.212 µM
TGI (T-47D breast): 2.92 µM

CN[C@H]1C=C[C@@H]2/C=C(C)/C=C/[C@@H](C)[C@H]([C@H](C)[C@H](O)[C@@H](C)NC(C)=O)OC(=O)/C=C/C=C(C)\C=C\[C@]2(C)C1
TGI (DU-145 prostate): > 49 µM
TGI (EKVX NSCLC): > 49 µM
GI50 (K-562 leukemia): 0.0202 µM
TGI (K-562 leukemia): > 49 µM
GI50 (KM12 colon): 0.00963 µM
TGI (KM12 colon): > 49 µM
GI50 (MALME-3M melanoma): 0.0808 µM and 0.0458 µM
TGI (MALME-3M melanoma): 21.7 µM
GI50 (MCF7 breast): < 0.001 µM and 0.0049 µM
TGI (MCF7 breast): > 49 µM
GI50 (SF-295 CNS): < 0.001 µM and 0.0049 µM
GI50 (T-47D breast): < 0.001 µM and 0.0049 µM
TGI (T-47D breast): > 49 µM

CCCNNC(=O)/C=C/c1ccc(CNCCc2c(C)[nH]c3ccccc23)cc1
GI50 (DU-145 prostate): 0.0322 µM
TGI (DU-145 prostate): 3.35 µM
GI50 (EKVX NSCLC): 0.074 µM
TGI (EKVX NSCLC): 3.73 µM
GI50 (K-562 leukemia): 0.0111 µM
TGI (K-562 leukemia): 3.78 µM
GI50 (KM12 colon): 0.0485 µM
TGI (KM12 colon): 0.966 µM
GI50 (MALME-3M melanoma): 0.015 µM
TGI (MALME-3M melanoma): 1.22 µM
GI50 (MCF7 breast): 0.0252 µM
TGI (MCF7 breast): 3.6 µM
GI50 (SF-295 CNS): 0.0471 µM
TGI (SF-295 CNS): 0.171 µM
GI50 (T-47D breast): 0.00852 µM
TGI (T-47D breast): 0.0624 µM

COc1ccc(-c2cc(=O)c3ccc(C)nc3[nH]2)cc1
TGI (DU-145 prostate): > 100 µM
TGI (EKVX NSCLC): > 100 µM
TGI (K-562 leukemia): > 100 µM
TGI (KM12 colon): > 100 µM
TGI (MALME-3M melanoma): > 100 µM
TGI (MCF7 breast): > 100 µM
GI50 (SF-295 CNS): 88.3 µM
TGI (SF-295 CNS): > 100 µM
TGI (T-47D breast): > 100 µM

CN(C)CCCNC(=O)c1cc(NC(=O)c2cc(NC(=O)CCc3c[nH]c4ccccc34)cn2C)cn1C
GI50 (DU-145 prostate): > 100 µM
TGI (DU-145 prostate): > 100 µM
GI50 (EKVX NSCLC): > 100 µM
TGI (EKVX NSCLC): > 100 µM
GI50 (K-562 leukemia): > 100 µM
TGI (K-562 leukemia): > 100 µM
GI50 (KM12 colon): > 100 µM
TGI (KM12 colon): > 100 µM
GI50 (MALME-3M melanoma): > 100 µM
TGI (MALME-3M melanoma): > 100 µM
GI50 (MCF7 breast): > 100 µM
TGI (MCF7 breast): > 100 µM
GI50 (SF-295 CNS): > 100 µM
TGI (SF-295 CNS): > 100 µM
GI50 (T-47D breast): > 100 µM
TGI (T-47D breast): > 100 µM

Cc1cc(S(=O)(=O)Nc2nc3cscc3c(=O)n2Cc2ccccc2)c(S)cc1Cl
GI50 (DU-145 prostate): 41 µM
TGI (DU-145 prostate): > 100 µM
GI50 (EKVX NSCLC): 23.8 µM
TGI (EKVX NSCLC): > 100 µM
GI50 (K-562 leukemia): 74.1 µM
TGI (K-562 leukemia): > 100 µM
GI50 (KM12 colon): 21.9 µM
TGI (KM12 colon): 74.7 µM
GI50 (MALME-3M melanoma): 28.7 µM
TGI (MALME-3M melanoma): > 100 µM
GI50 (MCF7 breast): 39.1 µM
TGI (MCF7 breast): > 100 µM
GI50 (SF-295 CNS): 23.7 µM
TGI (SF-295 CNS): > 100 µM
GI50 (T-47D breast): 4.53 µM
TGI (T-47D breast): 90.8 µM

Clc1ccc(SC(/C=C/NNC2=NC(c3ccccc3)C(c3ccccc3)=NN2)c2ccccc2)cc1 (centres undefined)
TGI (DLD-1 colon): > 100 µM
TGI (EKVX NSCLC): > 100 µM
TGI (K-562 leukemia): 53.1 µM
TGI (KM12 colon): 67.2 µM
TGI (MALME-3M melanoma): 39.8 µM
TGI (SF-295 CNS): 89.6 µM

CCC[CH2][Sn]([CH2]CCC)([CH2]CCC)[O]c1ccc(Cl)cc1Cl
GI50 (DU-145 prostate): 0.13 µM
TGI (DU-145 prostate): 0.271 µM
GI50 (EKVX NSCLC): 0.0948 µM
TGI (EKVX NSCLC): 0.302 µM
GI50 (K-562 leukemia): 0.12 µM
TGI (K-562 leukemia): 0.408 µM
GI50 (KM12 colon): 0.0939 µM
TGI (KM12 colon): 0.244 µM
GI50 (MALME-3M melanoma): 0.0973 µM
TGI (MALME-3M melanoma): 0.238 µM
GI50 (MCF7 breast): 0.125 µM
TGI (MCF7 breast): 0.255 µM
GI50 (SF-295 CNS): 0.15 µM
TGI (SF-295 CNS): 0.307 µM
GI50 (T-47D breast): 0.128 µM
TGI (T-47D breast): 0.307 µM

CC(=O)O[C@H]1CC[C@@]2(C)C(=CC[C@H]3[C@@H]4CC[C@H](c5cc(C(F)(F)F)n(C(C)=O)n5)[C@@]4(C)CC[C@@H]32)C1
TGI (DU-145 prostate): 23.5 µM
TGI (EKVX NSCLC): 21.3 µM
TGI (K-562 leukemia): 12.5 µM
TGI (KM12 colon): 20.9 µM
TGI (MALME-3M melanoma): > 52.8 µM
TGI (MCF7 breast): 18.7 µM
TGI (SF-295 CNS): 17 µM
TGI (T-47D breast): 25 µM

[Cl][Hg][Cl]
GI50 (DU-145 prostate): 20.1 µM
TGI (DU-145 prostate): 34.8 µM
GI50 (EKVX NSCLC): 19.9 µM
TGI (EKVX NSCLC): 34.6 µM
GI50 (K-562 leukemia): 0.302 µM
TGI (K-562 leukemia): 4.33 µM
GI50 (KM12 colon): 16.8 µM
TGI (KM12 colon): 31.6 µM
GI50 (MALME-3M melanoma): 9.16 µM
TGI (MALME-3M melanoma): 22.1 µM
GI50 (MCF7 breast): 12.5 µM
TGI (MCF7 breast): > 56 µM
GI50 (SF-295 CNS): 16.7 µM
TGI (SF-295 CNS): 31.9 µM
GI50 (T-47D breast): 5.18 µM
TGI (T-47D breast): 30.2 µM

CC[N+](CC)=c1sc2c(s1)C(c1ccc(Cl)cc1)Oc1ccc(Cl)cc1-2 (centres undefined)
GI50 (DU-145 prostate): 3.32 µM
TGI (DU-145 prostate): 10.6 µM
GI50 (EKVX NSCLC): 1.96 µM
TGI (EKVX NSCLC): 9.53 µM
GI50 (K-562 leukemia): 0.917 µM
TGI (K-562 leukemia): 10.3 µM
GI50 (KM12 colon): 0.456 µM
TGI (KM12 colon): 1.91 µM
GI50 (MALME-3M melanoma): 1.44 µM
TGI (MALME-3M melanoma): 3.88 µM
GI50 (MCF7 breast): 1.54 µM
TGI (MCF7 breast): 4.73 µM
GI50 (SF-295 CNS): 1.09 µM
TGI (SF-295 CNS): 4.64 µM
GI50 (T-47D breast): 1.67 µM
TGI (T-47D breast): 6.39 µM

Clc1nc(Cl)c2ncn(Cc3cccc(Cn4cnc5c(Cl)nc(Cl)nc54)c3)c2n1
GI50 (DU-145 prostate): 1.72 µM
TGI (DU-145 prostate): 3.09 µM
GI50 (EKVX NSCLC): 3.09 µM
TGI (EKVX NSCLC): 11 µM
GI50 (K-562 leukemia): 3.11 µM
TGI (K-562 leukemia): 17.1 µM
GI50 (KM12 colon): 2.87 µM
TGI (KM12 colon): 8.95 µM
GI50 (MALME-3M melanoma): 3.11 µM
TGI (MALME-3M melanoma): 9.84 µM
GI50 (MCF7 breast): 3.66 µM
TGI (MCF7 breast): 37.4 µM
GI50 (SF-295 CNS): 16.5 µM
TGI (SF-295 CNS): 30.9 µM
GI50 (T-47D breast): 3.01 µM
TGI (T-47D breast): 8.43 µM

COc1cccc(-c2nc3sccn3c2-c2ccnc(NCCCNS(=O)(=O)c3cccc(F)c3)c2)c1
GI50 (DU-145 prostate): 3.04 µM
TGI (DU-145 prostate): > 100 µM
GI50 (EKVX NSCLC): 2.99 µM
TGI (EKVX NSCLC): > 100 µM
GI50 (K-562 leukemia): 1.77 µM
TGI (K-562 leukemia): > 100 µM
GI50 (KM12 colon): 3.17 µM
TGI (KM12 colon): 27.3 µM
GI50 (MALME-3M melanoma): 2.23 µM
TGI (MALME-3M melanoma): 7.24 µM
GI50 (MCF7 breast): 2.49 µM
TGI (MCF7 breast): > 100 µM
GI50 (SF-295 CNS): 2.37 µM
TGI (SF-295 CNS): 7.48 µM
GI50 (T-47D breast): 1.24 µM
TGI (T-47D breast): 4.93 µM

CC(C)CCC(=O)c1ccoc1
TGI (DU-145 prostate): > 100 µM
TGI (EKVX NSCLC): > 100 µM
TGI (K-562 leukemia): > 100 µM
TGI (KM12 colon): > 100 µM
TGI (MALME-3M melanoma): > 100 µM
TGI (MCF7 breast): > 100 µM
TGI (SF-295 CNS): > 100 µM
TGI (T-47D breast): > 100 µM

— PubChem BioAssay (NCI)
